Counter-ions that a name gives are not always drawn.

Data on 34 molecules can be found in patent publication US20230003721A1, “MITOTHERAPEUTICS FOR THE TREATMENT OF BRAIN DISORDERS” (The University of Florida Research Foundation, Inc., priority 2019, published 2023).

For the first assay, the system named is primary forebrain neurons. In words: cells.
Conditions: not given
As for the experimental part: Primary forebrain cell culture and maintenance. Forebrains of P0 Mt or Mt/Ai14 pups without olfactory bulbs and meninges were collected and placed in ice cold Ca^2+ and Mg^2+ free HBSS supplemented with 2 μg/ml gentamicin, 25 mM D-glucose, 1 mM pyruvate and 20 mM HEPES. Brain tissue was digested with 0.6 mg/ml papain at 37° C. for 20 min. Forebrains were washed with plating media [Neurobasal (Gibco), 5% FBS, 4 mM GlutaMAX (Gibco), 2 μg/ml gentamicin]. The tissue was gently triturated, allowed to settle and the supernatant was filtered through a 40 μm mesh-sized cell strainer. Cells were centrifuged at 420×g for 4 min and resuspended in plating media. 15,000 cells per well were plated with 2×10^8 viral particles/ml onto black Greiner μClear (Cat #781946) or Ultra-Low Base Aurora with evaporation barrier (Cat #ABE201201B) 384-well plates (80 μl/well) pre-coated with poly-D-lysine for the primary screen and rescreen, respectively. Plating and media changes were performed using an automated Biomek FX^P liquid handling workstation. Four hr after plating, 75% of the plating media was replaced by feeding media [Neurobasal-A (Gibco), 4 mM GlutaMAX (Gibco), 2 μg/ml gentamicin, 2% B27 (Gibco)]. At DIV4, 50% of the media was exchanged with fresh feeding media supplemented with 16 μM 5-Fluoro-2′-deoxyuridine (FUdR) to prevent glial cell over-growth. At DIV8 and DIV12, additional 50% media changes were made without FUdR. Cells were maintained at 37° C. and 5% CO2; plates were topped with Breathe-Easy adhesive membranes (Greiner plates) to minimize evaporation.
Compounds and compound transfer.
Imaging. Images were captured using a GE Incell 6000 system (60× objective, 0.95 NA, 16-bit images) equipped with environmental control (37° C., 5% CO2). Mt-GFP (green channel) was imaged by confocal imaging (3 slices, Δz=0.7 μm, aperture=1.0 AU, λexc=488 nm, λem=515-535 nm). Cyto-tdTomato (red channel) and MitoTracker Orange (red channel) were imaged using confocal mode (3 slices, Δz=0.7 μm, aperture=1.0 AU, λexc=561 nm, λem=569-641 nm, MitoTracker Orange) or with widefield mode (Cyto-tdTomato). TMRM imaged for the co-localization experiments with Mt-GFP was imaged using the confocal mode (3 slices, […] aperture=1.0, λexc=488, λem=569-641 nm). For the live-dead assay, primary neurons were imaged with a 20× (widefield mode, NA 0.45) objective using λexc=561 nm and λem=569-641 nm for the propidium iodide stained dead cells (red channel), and λexc=488 nm and λem=515-535 nm for the fluorescein diacetate stained live cells (green channel). 10 fields were collected from each well, and 4 wells were imaged/condition in the live-dead assay. For all other experiments, 4 fields/well were imaged unless otherwise stated.
Automated data analysis pipeline. Most experiments utilized only Mt-GFP; some utilized both Mt-GFP and Cyto-tdTomato. The Z-projected images were preprocessed using a custom Fiji macro. For preprocessing of Mt-GFP images: background was subtracted (rolling ball, radius=3), images were median filtered (radius=1) and somatic mitochondria were removed. For removal of the somatic mitochondria, they were first segmented and then a somatic mitochondrial mask overlaid on the image.
In the case of `COc1ccc2c(c1)[C@]13CCCC[C@@H]1[C@H](C2)N(C)CC3` [DEXTROMETHORPHAN HYDROBROMIDE], the “Dendritic Mt CA” value was 2.38 robust Z-scores and the “Neurite Area” value is listed as 0.21 robust Z-scores.

For `FC(F)(F)C(Cl)Br` (centres unmarked) [HALOTHANE], the “Dendritic Mt CA” value is 2.60 robust Z-scores and the “Neurite Area” value is 2.65 robust Z-scores.

Staying with this assay, now noted: 12.5 μM, 10 replicate plates.
With `CC12CC3CC(C)(C1)CC(N)(C3)C2` [MEMANTINE HYDROCHLORIDE], the “confirmation in the re-screen” value is “weak hits”.

Consider `COc1ccc(/C=C/c2cc(O)cc(O)c2)cc1` [RESVERATROL 4′-METHYL ETHER], for which the “confirmation in the re-screen” value is “weak hits”.

The same assay, now with this note: Mus musculus, Neuron, 24 h, read-out: Elongation (Dend Mt length) EC50.
As usually defined, the EC50 is the concentration giving half of the maximal effect. Take `C#CCN(C)CCCOc1ccc(Cl)cc1Cl` [CLORGILINE HYDROCHLORIDE]: the EC50 stood at 5000 nM.

In the case of `COc1ccc2c(c1)[nH]c1c(C)nccc12` [HARMINE], the EC50 was found to be 1700 nM.

The assay is the same for the next values; noted with them: Mus musculus, Neuron, 24 h, read-out: Health (Ax Mt Circularity) EC50.
Turning to `COc1ccccc1-c1coc2cc(O)ccc2c1=O` [7-HYDROXY-2′-METHOXYISOFLAVONE], the EC50 was 200 nM.

In the case of `C#CCN(C)CCCOc1ccc(Cl)cc1Cl` [CLORGILINE HYDROCHLORIDE], the EC50 amounted to 300 nM.

Take `COc1ccc2c(c1)[nH]c1c(C)nccc12` [HARMINE]: the EC50 was over 25000 nM.

Still in this assay, the particulars now being: Mus musculus, Neuron, 24 h, read-out: Mt Content (Dend Mt CA) EC50.
As for `COc1ccccc1-c1coc2cc(O)ccc2c1=O` [7-HYDROXY-2′-METHOXYISOFLAVONE], the concentration for a half-maximal effect (EC50) is over 25000 nM.

For `C#CCN(C)CCCOc1ccc(Cl)cc1Cl` [CLORGILINE HYDROCHLORIDE], the 50% effective concentration (EC50) is 1000 nM.

The same assay, now with this note: Mus musculus, Neuron, 24 h, read-out: Sprouting (Neurite Area) EC50.
As to `C#CCN(C)CCCOc1ccc(Cl)cc1Cl` [CLORGILINE HYDROCHLORIDE], the EC50 is over 25000 nM.

Turning to `COc1ccc2c(c1)[nH]c1c(C)nccc12` [HARMINE], the EC50 is over 25000 nM.

The assay is the same for the next values; noted with them: rescreen, 12.5 μM, 24 h, vs DMSO wells.
`COc1cc(OC)c2c(c1)O[C@H](c1ccc(OC)c(OC)c1)[C@@H](O)C2`: the “Dendritic Mt CA” value came out at 2.44 robust Z-scores and the “Neurite Area” value worked out at 1.87 robust Z-scores.

As to `C[C@@H](N)[C@@H](O)c1ccccc1` [1R,2S-PHENYLPROPYLAMINE], the “Dendritic Mt CA” value stood at 3.14 robust Z-scores and the “Neurite Area” value was 1.25 robust Z-scores.

For `O=C(/C=C/c1ccc(O)cc1)c1ccccc1O` [2′,4-DIHYDROXYCHALCONE], the “Dendritic Mt CA” value was determined as 2.57 robust Z-scores and the “Neurite Area” value stood at 0.01 robust Z-scores.

For `O=C(/C=C/c1ccccc1)c1ccc(O[C@@H]2O[C@H](CO)[C@@H](O)[C@H](O)[C@H]2O)cc1O` [2′,4′-DIHYDROXYCHALCONE 4′-GLUCOSIDE], the “Dendritic Mt CA” value is listed as 4.44 robust Z-scores and the “Neurite Area” value is −0.18 robust Z-scores.

`O=c1c(O)c(-c2ccccc2)oc2cccc(O)c12` [3,5-DIHYDROXYFLAVONE]: the “Dendritic Mt CA” value is reported as 3.43 robust Z-scores and the “Neurite Area” value stood at 1.20 robust Z-scores.

For the molecule `O=c1c(O)c(-c2ccccc2)oc2cc(O)ccc12` [3,7-DIHYDROXYFLAVONE], the “Dendritic Mt CA” value was 2.78 robust Z-scores and the “Neurite Area” value stood at 1.37 robust Z-scores.

For the molecule `O=c1cc(-c2ccccc2)oc2ccc(O)cc12` [6-HYDROXYFLAVONE], the “Dendritic Mt CA” value turned out to be 2.88 robust Z-scores and the “Neurite Area” value is reported as 0.69 robust Z-scores.

For the molecule `CC[C@@]1(O)C(=O)OCc2c1cc1n(c2=O)Cc2cc3cc(O)ccc3nc2-1` [10-HYDROXYCAMPTOTHECIN], the “Dendritic Mt CA” value turned out to be 2.23 robust Z-scores and the “Neurite Area” value was determined as 2.29 robust Z-scores.

`CN1CCc2cccc3c2[C@H]1Cc1ccc(O)c(O)c1-3` [APOMORPHINE HYDROCHLORIDE]: the “Dendritic Mt CA” value was found to be 2.10 robust Z-scores and the “Neurite Area” value is listed as −0.07 robust Z-scores.

On to `CCCC1O[C@@H]2C[C@H]3[C@@H]4CCC5=CC(=O)C=C[C@]5(C)[C@H]4[C@@H](O)C[C@]3(C)[C@]2(C(=O)CO)O1` (some centres unmarked) [BUDESONIDE], for which the “Dendritic Mt CA” value worked out at 2.16 robust Z-scores and the “Neurite Area” value is listed as −0.61 robust Z-scores.

As for `CCCCCOC(=O)Nc1nc(=O)n([C@@H]2O[C@H](C)[C@@H](O)[C@H]2O)cc1F` [CAPECITABINE], the “Dendritic Mt CA” value was found to be 2.88 robust Z-scores and the “Neurite Area” value amounted to 0.58 robust Z-scores.

Consider `CNC(=O)Oc1cccc2ccccc12` [CARBARIL], for which the “Dendritic Mt CA” value is given as 2.03 robust Z-scores and the “Neurite Area” value is recorded as −0.48 robust Z-scores.

Take `CC(C)CCC[C@@H](C)[C@H]1CC[C@H]2[C@@H]3CC=C4CC(=O)CC[C@]4(C)[C@H]3CC[C@]12C` [CHOLEST-5-EN-3-ONE]: the “Dendritic Mt CA” value was found to be 2.78 robust Z-scores and the “Neurite Area” value is on record as −0.65 robust Z-scores.

Take `C#CCN(C)CCCOc1ccc(Cl)cc1Cl` [CLORGILINE HYDROCHLORIDE]: the “Dendritic Mt CA” value was 4.33 robust Z-scores and the “Neurite Area” value was −0.36 robust Z-scores.

Turning to `C=C(C)c1cc2cc(C(C)=O)c(O)cc2o1` [EUPARIN], the “Dendritic Mt CA” value amounted to 4.22 robust Z-scores and the “Neurite Area” value turned out to be 1.17 robust Z-scores.

Consider `O=C(CCCN1CCC(O)(c2ccc(Cl)cc2)CC1)c1ccc(F)cc1` [HALOPERIDOL], for which the “Dendritic Mt CA” value stood at 2.99 robust Z-scores and the “Neurite Area” value is given as −2.37 robust Z-scores.

With `COc1ccc2c(c1)[nH]c1c(C)nccc12` [HARMINE], the “Dendritic Mt CA” value was 3.65 robust Z-scores and the “Neurite Area” value was −1.63 robust Z-scores.

With `CC[C@H]1CN2CC[C@H]1C[C@@H]2[C@@H](O)c1ccnc2ccc(OC)cc12` [HYDROQUINIDINE], the “Dendritic Mt CA” value is 2.19 robust Z-scores and the “Neurite Area” value is reported as −0.15 robust Z-scores.

Consider `CC1=C(/C=C/C(C)=C/C=C/C(C)=C\C(=O)O)C(C)(C)CCC1` [ISOTRETINON], for which the “Dendritic Mt CA” value amounted to 2.69 robust Z-scores and the “Neurite Area” value was 0.77 robust Z-scores.

Turning to `Nc1nnc(-c2cccc(Cl)c2Cl)c(N)n1` [LAMOTRIGINE], the “Dendritic Mt CA” value amounted to 4.75 robust Z-scores and the “Neurite Area” value is 1.00 robust Z-scores.

For the molecule `CC12CC3CC(C)(C1)CC(N)(C3)C2` [MEMANTINE HYDROCHLORIDE], the “Dendritic Mt CA” value was found to be 3.25 robust Z-scores and the “Neurite Area” value is given as 1.45 robust Z-scores.

Consider `CN1CCOC(c2ccccc2)c2ccccc2C1` (centres unmarked) [NEFOPAM], for which the “Dendritic Mt CA” value is given as 3.74 robust Z-scores and the “Neurite Area” value was −0.44 robust Z-scores.

On to `C#CCN(C)Cc1ccccc1` [PARGYLINE HYDROCHLORIDE], for which the “Dendritic Mt CA” value stood at 3.75 robust Z-scores and the “Neurite Area” value is 2.51 robust Z-scores.

As for `O=C(CCc1ccc(O)cc1)c1c(O)cc(O)cc1O` [PHLORETIN], the “Dendritic Mt CA” value is reported as 2.73 robust Z-scores and the “Neurite Area” value stood at 1.23 robust Z-scores.

As for `COc1ccc(CN(CCN(C)C)c2ccccn2)cc1` [PYRILAMINE MALEATE], the “Dendritic Mt CA” value is reported as 2.65 robust Z-scores and the “Neurite Area” value is recorded as 0.78 robust Z-scores.

For the molecule `COc1ccc(/C=C/c2cc(O)cc(O)c2)cc1` [RESVERATROL 4′-METHYL ETHER], the “Dendritic Mt CA” value came to 3.68 robust Z-scores and the “Neurite Area” value is given as 0.02 robust Z-scores.

With `COc1ccc2c(c1O)-c1c(OC)c(OC)cc3c1[C@H](C2)N(C)CC3` [S-ISOCORYDINE (+)], the “Dendritic Mt CA” value was found to be 2.82 robust Z-scores and the “Neurite Area” value came out at 0.78 robust Z-scores.

On to `O=C(O[C@H]1CN2CCC1CC2)N1CCc2ccccc2[C@@H]1c1ccccc1` [SOLIFENACIN SUCCINATE], for which the “Dendritic Mt CA” value is recorded as 5.06 robust Z-scores and the “Neurite Area” value turned out to be 1.42 robust Z-scores.

`Cc1cccc(N(C)C(=S)Oc2ccc3ccccc3c2)c1` [TOLNAFTATE]: the “Dendritic Mt CA” value amounted to 2.93 robust Z-scores and the “Neurite Area” value is listed as 1.01 robust Z-scores.

As to `Cc1cccc(C)c1N=C1NCCCS1` [XYLAZINE], the “Dendritic Mt CA” value turned out to be 3.66 robust Z-scores and the “Neurite Area” value is recorded as 0.40 robust Z-scores.

For AVOCATIN A, the “Dendritic Mt CA” value is on record as 4.14 robust Z-scores and the “Neurite Area” value amounted to 3.48 robust Z-scores.
